Molecular target: T1, human PAR4 (Homo sapiens, UniProt Q96RI0)
T1 construct: expressed in transfected cells; host or cells: HEK293 PAR4 Clone 1.2A (BMS Arctic ID 383940)
T1 sequence (Q96RI0 18-385): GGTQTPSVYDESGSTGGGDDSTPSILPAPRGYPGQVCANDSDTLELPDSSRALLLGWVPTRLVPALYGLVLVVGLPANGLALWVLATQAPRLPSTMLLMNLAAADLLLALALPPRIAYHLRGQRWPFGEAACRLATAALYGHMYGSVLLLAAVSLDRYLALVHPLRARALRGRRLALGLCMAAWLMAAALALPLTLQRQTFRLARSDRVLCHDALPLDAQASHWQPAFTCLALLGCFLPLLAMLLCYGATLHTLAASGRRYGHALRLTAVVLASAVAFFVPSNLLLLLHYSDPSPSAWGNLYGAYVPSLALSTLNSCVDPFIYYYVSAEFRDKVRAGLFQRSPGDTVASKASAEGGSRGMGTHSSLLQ
Test: PAR4 FLIPR assay: antagonism of agonist-peptide-induced calcium mobilization in PAR4-expressing HEK293 cells
Assay type: cell-based
Settings: H-Ala-Phe(4-F)-[…]NH2-induced intracellular calcium mobilization, 11-point curves

Row | Structure (SMILES) | IC50 [nM]
1 | COc1cnc2c(-c3nc4cc(F)c(O[C@@H](C)[C@@H](C)OC(=O)Nc5ccc(C(=O)N6CC[C@H](CO)C6)nc5)cc4s3)cc(C)cc2n1 [Example 482, (2R,3S)-3-((5-fluoro-2-(2-methoxy-7-methylquinoxalin-5-yl)benzo[d]thiazol-6-yl)oxy)butan-2-yl (6-((S)-3-(hydroxymethyl)pyrrolidine-1-carbonyl)pyridin-3-yl)carbamate] | 0.6
2 | COc1cnc2c(-c3nc4cc(F)c(O[C@@H](C)[C@@H](C)OC(=O)Nc5ccc(C(=O)N6CCC[C@@H](O)C6)nc5)cc4s3)cc(C)cc2n1 [Example 483, (2R,3S)-3-((5-fluoro-2-(2-methoxy-7-methylquinoxalin-5-yl)benzo[d]thiazol-6-yl)oxy)butan-2-yl (6-((R)-3-hydroxypiperidine-1-carbonyl)pyridin-3-yl)carbamate] | 0.8
3 | COc1cnc2c(-c3nc4cc(F)c(OC[C@@H](C)OC(=O)Nc5ccc(C(=O)N6CCOC[C@@H]6CO)nc5)cc4s3)cc(C)cc2n1 [Example 489, (R)-1-((5-fluoro-2-(2-methoxy-7-methylquinoxalin-5-yl)benzo[d]thiazol-6-yl)oxy)propan-2-yl (6-((S)-3-(hydroxymethyl)morpholine-4-carbonyl)pyridin-3-yl)carbamate] | 9.1
4 | Cc1cc(-c2nc3cc(F)c(O[C@@H](C)[C@@H](C)OC(=O)Nc4cnc(C)nc4)cc3s2)c2ncc(OC(F)F)nc2c1 [Example 490, (2R,3S)-3-((2-(2-(difluoromethoxy)-7-methylquinoxalin-5-yl)-5-fluorobenzo[d]thiazol-6-yl)oxy)butan-2-yl (2-methylpyrimidin-5-yl)carbamate] | 5.1
5 | Cc1cc(-c2nc3cc(F)c(O[C@@H](C)[C@@H](C)OC(=O)Nc4cnc(C)nc4)cc3s2)c2ncc(OC(C)C)nc2c1 [Example 492, (2R,3S)-3-((5-fluoro-2-(2-isopropoxy-7-methylquinoxalin-5-yl)benzo[d]thiazol-6-yl)oxy) butan-2-yl (2-methylpyrimidin-5-yl)carbamate] | 7.4
6 | COc1cnc2c(-c3nc4cc(F)c(OC[C@@H](C)OC(=O)Nc5cnc(CO)nc5)cc4s3)cc(C)cc2n1 [Example 496, (R)-1-((5-fluoro-2-(2-methoxy-7-methylquinoxalin-5-yl)benzo[d]thiazol-6-yl)oxy)propan-2-yl (2-(hydroxymethyl)pyrimidin-5-yl)carbamate] | 1.9
7 | COc1cnc2c(-c3nc4cc(F)c(OC[C@@H](C)OC(=O)Nc5cnc(C(C)(C)O)nc5)cc4s3)cc(C)cc2n1 [Example 497, (R)-1-((5-fluoro-2-(2-methoxy-7-methylquinoxalin-5-yl)benzo[d]thiazol-6-yl)oxy)propan-2-yl (2-(2-hydroxypropan-2-yl)pyrimidin-5-yl)carbamate] | 1.3
8 | COc1cnc2c(-c3nc4cc(F)c(OC[C@@H](C)OC(=O)Nc5ccc(C(C)(C)O)nc5)cc4s3)cc(C)cc2n1 [Example 498, (R)-1-((5-fluoro-2-(2-methoxy-7-methylquinoxalin-5-yl)benzo[d]thiazol-6-yl)oxy)propan-2-yl (6-(2-hydroxypropan-2-yl)pyridin-3-yl)carbamate] | 1.3
9 | COc1cnc2c(-c3nc4cc(F)c(O[C@@H](C)[C@@H](C)OC(=O)Nc5cnc(C(C)(C)O)nc5)cc4s3)cc(C)cc2n1 [Example 501, (2R,3S)-3-((5-fluoro-2-(2-methoxy-7-methylquinoxalin-5-yl)benzo[d]thiazol-6-yl)oxy)butan-2-yl (2-(2-hydroxypropan-2-yl)pyrimidin-5-yl)carbamate] | 4
10 | COc1cnc2c(-c3nc4cc(F)c(O[C@@H](C)[C@@H](C)OC(=O)Nc5cnc(OCCO)nc5)cc4s3)cc(Cl)cc2c1 [Example 512, (2R,3S)-3-((2-(6-chloro-3-methoxyquinolin-8-yl)-5-fluorobenzo[d]thiazol-6-yl)oxy)butan-2-yl (2-(2-hydroxyethoxy)pyrimidin-5-yl)carbamate] | 1.2
11 | CCOc1cnc2c(-c3nc4cc(F)c(O[C@@H](C)[C@@H](C)OC(=O)Nc5cnc(OCCO)nc5)cc4s3)cc(Cl)cc2c1 [Example 513, (2R,3S)-3-((2-(6-chloro-3-ethoxyquinolin-8-yl)-5-fluorobenzo[d]thiazol-6-yl)oxy)butan-2-yl (2-(2-hydroxyethoxy)pyrimidin-5-yl)carbamate] | 1.1
12 | COc1cnc2c(-c3nc4cc(F)c(O[C@@H](C)[C@@H](C)OC(=O)Nc5cnc(OCCO)nc5)cc4s3)cc(C)cc2c1 [Example 514, (2R,3S)-3-((5-fluoro-2-(3-methoxy-6-methylquinolin-8-yl)benzo[d]thiazol-6-yl)oxy)butan-2-yl (2-(2-hydroxyethoxy)pyrimidin-5-yl)carbamate] | 1.9

More lines, in order of falling IC50, values ahead:

Row | IC50 [nM] | Structure (SMILES)
13 | 21 | Cc1cc(-c2nc3cc(F)c(O[C@@H](C)[C@@H](C)OC(=O)Nc4cnc(C)nc4)cc3s2)c2ncc(OCCO)nc2c1 [Example 493, (2R,3S)-3-((5-fluoro-2-(2-(2-hydroxyethoxy)-7-methylquinoxalin-5-yl)benzo[d]thiazol-6-yl)oxy)butan-2-yl (2-methylpyrimidin-5-yl)carbamate]
14 | 15 | COc1cnc2c(-c3nc4cc(F)c(OC[C@@H](C)OC(=O)Nc5ccnc(CO)c5)cc4s3)cc(C)cc2n1 [Example 495, (R)-1-((5-fluoro-2-(2-methoxy-7-methylquinoxalin-5-yl)benzo[d]thiazol-6-yl)oxy)propan-2-yl (2-(hydroxymethyl)pyridin-4-yl)carbamate]
15 | 14 | COc1cnc2c(-c3nc4cc(F)c(OC[C@@H](C)OC(=O)Nc5ccc(C(=O)N6CCOC[C@H]6CO)nc5)cc4s3)cc(C)cc2n1 [Example 488, (R)-1-((5-fluoro-2-(2-methoxy-7-methylquinoxalin-5-yl)benzo[d]thiazol-6-yl)oxy)propan-2-yl (6-((R)-3-(hydroxymethyl)morpholine-4-carbonyl)pyridin-3-yl)carbamate]
16 | 4.4 | COc1cnc2c(-c3nc4cc(F)c(O[C@@H](C)[C@@H](C)OC(=O)Nc5ccc(CO)nc5)cc4s3)cc(C)cc2n1 [Example 499, (2R,3S)-3-((5-fluoro-2-(2-methoxy-7-methylquinoxalin-5-yl)benzo[d]thiazol-6-yl)oxy)butan-2-yl (6-(hydroxymethyl)pyridin-3-yl)carbamate]
17 | 3.8 | COc1cnc2c(-c3nc4cc(F)c(O[C@@H](C)[C@@H](C)OC(=O)Nc5ccc(C(C)(C)O)nc5)cc4s3)cc(C)cc2n1 [Example 500, (2R,3S)-3-((5-fluoro-2-(2-methoxy-7-methylquinoxalin-5-yl)benzo[d]thiazol-6-yl)oxy)butan-2-yl (6-(2-hydroxypropan-2-yl)pyridin-3-yl)carbamate]
18 | 1.8 | COc1cnc2c(-c3nc4c(Cl)c(F)c(OC[C@@H](C)OC(=O)Nc5ccnc(CO)c5)cc4s3)cc(C)cc2n1 [Example 494, (R)-1-((4-chloro-5-fluoro-2-(2-methoxy-7-methylquinoxalin-5-yl)benzo[d]thiazol-6-yl)oxy)propan-2-yl (2-(hydroxymethyl)pyridin-4-yl)carbamate]
19 | 1.7 | COc1cnc2c(-c3nc4cc(F)c(O[C@@H](C)[C@@H](C)OC(=O)Nc5cnc(CO)nc5)cc4s3)cc(C)cc2n1 [Example 502, (2R,3S)-3-((5-fluoro-2-(2-methoxy-7-methylquinoxalin-5-yl)benzo[d]thiazol-6-yl)oxy)butan-2-yl (2-(hydroxymethyl)pyrimidin-5-yl)carbamate]
20 | 1.6 | COc1cnc2c(-c3nc4cc(F)c(OC[C@@H](C)OC(=O)Nc5ccc(C(=O)N6CCC[C@@H](O)C6)nc5)cc4s3)cc(C)cc2n1 [Example 485, (R)-1-((5-fluoro-2-(2-methoxy-7-methylquinoxalin-5-yl)benzo[d]thiazol-6-yl)oxy)propan-2-yl (6-((R)-3-hydroxypiperidine-1-carbonyl)pyridin-3-yl)carbamate]
21 | 1.3 | COc1cnc2c(-c3nc4cc(F)c(O[C@@H](C)[C@@H](C)OC(=O)Nc5ccc(C(=O)N6CCOC[C@@H]6CO)nc5)cc4s3)cc(C)cc2n1 [Example 487, (2R,3S)-3-((5-fluoro-2-(2-methoxy-7-methylquinoxalin-5-yl)benzo[d]thiazol-6-yl)oxy)butan-2-yl (6-((S)-3-(hydroxymethyl)morpholine-4-carbonyl)pyridin-3-yl)carbamate]
22 | 1 | COc1cnc2c(-c3nc4cc(F)c(OC[C@@H](C)OC(=O)Nc5ccc(C(=O)N6CCC[C@H](O)C6)nc5)cc4s3)cc(C)cc2n1 [Example 484, (R)-1-((5-fluoro-2-(2-methoxy-7-methylquinoxalin-5-yl)benzo[d]thiazol-6-yl)oxy)propan-2-yl (6-((S)-3-hydroxypiperidine-1-carbonyl)pyridin-3-yl)carbamate]
23 | 0.6 | COc1cnc2c(-c3nc4cc(F)c(O[C@@H](C)[C@@H](C)OC(=O)Nc5ccc(C(=O)N6CCC[C@H](O)C6)nc5)cc4s3)cc(C)cc2n1 [Example 481, (2R,3S)-3-((5-fluoro-2-(2-methoxy-7-methylquinoxalin-5-yl)benzo[d]thiazol-6-yl)oxy)butan-2-yl (6-((S)-3-hydroxypiperidine-1-carbonyl)pyridin-3-yl)carbamate]
24 | 0.4 | CCCOc1cnc2c(-c3nc4cc(F)c(O[C@@H](C)[C@@H](C)OC(=O)Nc5cnc(C)nc5)cc4s3)cc(C)cc2n1 [Example 491, (2R,3S)-3-((5-fluoro-2-(7-methyl-2-propoxyquinoxalin-5-yl)benzo[d]thiazol-6-yl)oxy)butan-2-yl (2-methylpyrimidin-5-yl)carbamate]
